Experimental data reported in BindingDB's records for doi:10.1002/cbic.201300770 (Northeast Ohio Medial University, 2014).

Columns and labels:
[1] = biological target: T1, Amine oxidase [flavin-containing] A (Homo sapiens, UniProt P21397); experiment: MAO Enzyme Assays; conditions: pH 7.4
T1 sequence (P21397 whole entry): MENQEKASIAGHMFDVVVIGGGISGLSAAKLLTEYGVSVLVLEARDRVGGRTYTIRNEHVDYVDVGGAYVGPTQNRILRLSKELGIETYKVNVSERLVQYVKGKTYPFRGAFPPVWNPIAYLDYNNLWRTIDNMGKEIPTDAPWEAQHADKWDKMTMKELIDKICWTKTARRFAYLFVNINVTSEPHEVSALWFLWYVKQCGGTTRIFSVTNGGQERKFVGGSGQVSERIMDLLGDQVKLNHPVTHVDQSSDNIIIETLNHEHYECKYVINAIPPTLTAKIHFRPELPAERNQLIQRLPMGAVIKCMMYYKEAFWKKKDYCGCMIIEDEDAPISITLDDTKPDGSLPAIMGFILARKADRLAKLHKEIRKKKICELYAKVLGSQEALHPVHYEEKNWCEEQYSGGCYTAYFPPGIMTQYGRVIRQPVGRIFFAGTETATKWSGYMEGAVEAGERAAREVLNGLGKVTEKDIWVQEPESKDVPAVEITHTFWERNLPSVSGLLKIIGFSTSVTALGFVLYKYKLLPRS
Description: (§1) The buffer system used was a 0.1 M phosphate buffer (pH 7.4). The assays were carried out in a fluorescent 96-well plate. The final concentrations of MAO-A and MAO-B were 6 µg/mL and 15 µg/mL, respectively. The final concentration of kynuramine was 40 µM for MAO-A or 20 µM for MAO-B. The compounds (10 mM stock solution in DMSO; less than 2% (v/v) final concentration of DMSO in the assay) were incubated with MAO and the substrate for 20 min, and quenched with the addition of 2 N NaOH.

[2] = biological target: T2, Amine oxidase [flavin-containing] B (Homo sapiens, UniProt P27338); experiment: MAO Enzyme Assays; conditions: pH 7.4
T2 sequence (P27338 whole entry): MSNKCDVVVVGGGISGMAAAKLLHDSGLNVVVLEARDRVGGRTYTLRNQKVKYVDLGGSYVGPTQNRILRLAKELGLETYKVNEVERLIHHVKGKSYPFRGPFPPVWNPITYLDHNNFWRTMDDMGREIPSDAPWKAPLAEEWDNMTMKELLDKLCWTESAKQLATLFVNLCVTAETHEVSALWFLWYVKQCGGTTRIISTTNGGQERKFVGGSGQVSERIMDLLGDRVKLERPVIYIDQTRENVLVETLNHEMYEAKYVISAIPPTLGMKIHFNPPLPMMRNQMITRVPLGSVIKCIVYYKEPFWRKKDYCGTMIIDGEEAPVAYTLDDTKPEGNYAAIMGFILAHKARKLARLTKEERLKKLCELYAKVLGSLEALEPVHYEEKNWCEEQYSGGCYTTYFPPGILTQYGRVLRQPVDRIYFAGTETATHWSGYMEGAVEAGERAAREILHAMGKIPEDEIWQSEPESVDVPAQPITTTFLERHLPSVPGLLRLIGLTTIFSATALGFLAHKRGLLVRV
Description: as §1

For c1ccc(/N=N/c2ccccc2)cc1 [(E)-1,2-diphenyldiazene], the IC50 [1] was 22.9 µM and the IC50 [2] was 2660 nM.

With CN(C)c1ccc(/N=N/c2ccccc2)cc1 [(E)-N,N-dimethyl-4-(phenyldiazenyl)aniline] the IC50 [1] was 4.64 µM and the IC50 [2] was 14.6 nM.
